How the values were obtained:
HeLa cells = experiment: MTT cell viability assay, HeLa; assay type: cell-based, human
Protocol: (§1) Cell viability assay was performed on the human lung cancer (A549) (ATCC CCL-185), human breast cancer (MCF-7) (ATCC-HTB-22), cervical cancer (HeLa) (ATCC-CCL-2), and human embryonic kidney 293 (HEK293) (ATCC-CRL-1573) cell lines, which were purchased from Deutsche Sammlung von Mikroorganismen und Zellkulturen (DSMZ, Braunschweig, Germany). The cells were maintained in Dulbecco’s modified Eagle’s medium (DMEM), supplemented with 10% fetal bovine serum (FBS), 2 mM L-glutamine, 100 U/mL penicillin, and 100 mg/L streptomycin (Biochrom AG, Berlin, Germany) at 37 °C in a humidified atmosphere of 5% CO2.
(§2) The cytotoxic effect was determined by the MTT (3-(4,5-dimethyl-2-thiazolyl)-2,5-diphenyl-2H-tetrazolium bromide) cell viability assay. Cells were seeded at an initial concentration of 1 × 10^5 cells/mL in 96-well microplates. Cells were then treated with different concentrations (0.5, 5, 10, 25, 50, 100 and 200 µM) of the novel synthesized compounds for 48 h. After the incubation period, the formed formazan crystals were dissolved in dimethyl sulfoxide (DMSO), and the optical density (OD) of the compounds was measured at 570 nm using a spectrophotometer (BMG Labtech, Ortenberg, Germany). Cytotoxicity was expressed as an increase in the mean percentage of cytotoxicity relative to the unexposed control ± standard deviation (SD). […] Control values were set at 0% cytotoxicity. IC50 was calculated by fitting the data to a sigmoidal curve using a four-parameter logistic model and was presented as an average of three independent measurements. […] Doxorubicin was used as a positive control. Each sample was tested in triplicate.
(§3) To evaluate the selectivity of the tested compound(s) toward cancer cells over normal cells, the Selectivity Index (SI) was calculated using the following formula:SI = IC50 (normal cells)/IC50 (cancer cells)
(§4) An SI value greater than 2 was considered to indicate selective cytotoxicity, while values below 2 were interpreted as non-selective. Higher SI values reflect greater therapeutic potential due to reduced toxicity toward normal cells.

HEK 293 cells = experiment: MTT cell viability assay, non-cancerous HEK 293; assay type: cell-based, human; settings: Homo sapiens, HEK293, 48 h, mean ± SD, n = 3
Protocol: as §1
The cytotoxic effect was determined by the MTT (3-(4,5-dimethyl-2-thiazolyl)-2,5-diphenyl-2H-tetrazolium bromide) cell viability assay. Cells were seeded at an initial concentration of 1 × 10^5 cells/mL in 96-well microplates. Cells were then treated with different concentrations (0.5, 5, 10, 25, 50, 100 and 200 µM) of the novel synthesized compounds for 48 h. After the incubation period, the formed formazan crystals were dissolved in dimethyl sulfoxide (DMSO), and the optical density (OD) of the compounds was measured at 570 nm using a spectrophotometer (BMG Labtech, Ortenberg, Germany). Cytotoxicity was expressed as an increase in the mean percentage of cytotoxicity relative to the unexposed control ± standard deviation (SD). […] Control values were set at 0% cytotoxicity. IC50 was calculated by fitting the data to a sigmoidal curve using a four-parameter logistic model and was presented as an average of three independent measurements. […] Each sample was tested in triplicate.

A549 cells = experiment: MTT cell viability assay, A549; assay type: cell-based, human
Protocol: as §1, §2, §3, §4

[1] = system: A549, MCF-7, and HeLa cells; experiment: MTT cell viability assay, ranges stated across the cancer cell lines; assay type: cell-based; settings: Homo sapiens, range over the three cancer cell lines, 48 h
Protocol: as §1
The cytotoxic effect was determined by the MTT (3-(4,5-dimethyl-2-thiazolyl)-2,5-diphenyl-2H-tetrazolium bromide) cell viability assay. Cells were seeded at an initial concentration of 1 × 10^5 cells/mL in 96-well microplates. […] After the incubation period, the formed formazan crystals were dissolved in dimethyl sulfoxide (DMSO), and the optical density (OD) of the compounds was measured at 570 nm using a spectrophotometer (BMG Labtech, Ortenberg, Germany). Cytotoxicity was expressed as an increase in the mean percentage of cytotoxicity relative to the unexposed control ± standard deviation (SD). […] IC50 was calculated by fitting the data to a sigmoidal curve using a four-parameter logistic model and was presented as an average of three independent measurements. […]

MCF-7 cells = experiment: MTT cell viability assay, MCF-7; assay type: cell-based, human
Protocol: as §1, §2, §3, §4

IC50 (HeLa cells; Homo sapiens, HeLa, MTT, 48 h, mean ± SD, n = 3): 8.5 ± 0.49 µM
IC50 (A549 cells; Homo sapiens, A549, MTT, 48 h, mean ± SD, n = 3): 9.6 ± 0.55 µM
IC50 [1]: 8.5 to 11.2 µM
IC50 (MCF-7 cells; Homo sapiens, MCF7, MTT, 48 h, mean ± SD, n = 3): 11.2 ± 0.46 µM
SMILES: O=c1n(CN2CCN(c3ccc(Cl)cc3)CC2)c2cc(Cl)c(Cl)cc2n1CN1CCN(c2ccc(Cl)cc2)CC1 [Compound 9, 5,6-Dichloro-1,3-bis((4-(4-chlorophenyl)piperazin-1-yl)methyl)-1H-benzo[d]imidazol-2(3H)-one]
HeLa Selectivity Index (SI) (HeLa cells; SI = IC50 (HEK 293)/IC50 (HeLa)): 1.78
IC50 (HEK 293 cells): 15.2 ± 0.87 µM
A549 Selectivity Index (SI) (A549 cells; SI = IC50 (HEK 293)/IC50 (A549)): 1.58
MCF-7 Selectivity Index (SI) (MCF-7 cells; SI = IC50 (HEK 293)/IC50 (MCF-7)): 1.35

— article PMC12735921, “Evaluation of Antiproliferative Activity and Molecular Modeling Studies of Some Novel Benzimidazolone-Bridged Hybrid Compounds” (Pharmaceuticals, 2025)
